# The supplement of paper PMC10307832
# Experiments:
# Assay in all cases: relative viability (nuclei count vs DMSO), 5 days (fraction); higher = more cells survive
# Dabrafenib = compound: CC(C)(C)c1nc(-c2cccc(NS(=O)(=O)c3c(F)cccc3F)c2F)c(-c2ccnc(N)n2)s1 [Dabrafenib]
# How it was run: (§1)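 Nuclei counted with MetaXpress define viability as the ratio of treated to vehicle wells, given as a median across plates. The lung cancer cell lines were in 1536-well plates, pinned with five √10-spaced library-drug doses and imaged at 4× after 5 days and Hoechst staining. Plates passed with control CV below 25% and at least one doubling.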
# VX-702 = compound: NC(=O)c1ccc(N(C(N)=O)c2c(F)cccc2F)nc1-c1ccc(F)cc1F [VX-702]
# How it was run: as §1
# Dabrafenib + Alpelisib = compound: CC(C)(C)c1nc(-c2cccc(NS(=O)(=O)c3c(F)cccc3F)c2F)c(-c2ccnc(N)n2)s1 [Dabrafenib] + Cc1nc(NC(=O)N2CCC[C@H]2C(N)=O)sc1-c1ccnc(C(C)(C)C(F)(F)F)c1 [Alpelisib] (partner 2 µM)
# How it was run: (§2)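 Five library-drug doses in √10 steps were combined with a fixed anchor-drug dose, or a single drug was given alone, by pin tool to lung cancer cell lines in 1536-well plates the day after seeding. Nuclei were stained and counted after 5 days. Relative viability is the nuclei count in treated wells over that in vehicle wells, taken as the median of duplicate plates.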
# VX-702 + Pemetrexed = compound: NC(=O)c1ccc(N(C(N)=O)c2c(F)cccc2F)nc1-c1ccc(F)cc1F [VX-702] + Nc1nc2[nH]cc(CCc3ccc(C(=O)N[C@@H](CCC(=O)O)C(=O)O)cc3)c2c(=O)[nH]1 [Pemetrexed] (partner 0.2 µM)
# How it was run: as §2
Cell Line,relative viability (Dabrafenib; 0.003 µM),relative viability (Dabrafenib; 0.009487 µM),relative viability (Dabrafenib; 0.03 µM),relative viability (Dabrafenib; 0.09487 µM),relative viability (Dabrafenib; 0.3 µM),relative viability (VX-702; 0.02 µM),relative viability (VX-702; 0.2 µM),relative viability (VX-702; 0.6325 µM),relative viability (VX-702; 2 µM),relative viability (Dabrafenib + Alpelisib; first compound 0.003 µM),relative viability (Dabrafenib + Alpelisib; first compound 0.03 µM),relative viability (Dabrafenib + Alpelisib; first compound 0.09487 µM),relative viability (Dabrafenib + Alpelisib; first compound 0.3 µM),relative viability (VX-702 + Pemetrexed; first compound 0.02 µM),relative viability (VX-702 + Pemetrexed; first compound 0.2 µM),relative viability (VX-702 + Pemetrexed; first compound 0.6325 µM),relative viability (VX-702 + Pemetrexed; first compound 2 µM),relative viability (Dabrafenib + Alpelisib; first compound 0.009487 µM)
NCI-H1666,1.01,0.943,1.03,0.984,1.01,0.968,0.854,0.972,0.75,0.988,0.962,0.973,1.11,0.869,0.869,0.89,0.808,
NCI-H1734,,1.08,0.716,0.765,0.891,1.04,0.919,0.876,0.703,,0.585,0.573,0.688,0.386,0.377,0.413,0.409,0.775
NCI-H1755,0.99,1.03,0.875,0.94,0.971,1.01,1.03,1.1,0.998,0.907,0.734,0.904,0.875,0.473,0.404,0.384,0.378,0.937
NCI-H1792,,0.915,0.877,0.679,0.806,0.763,0.87,0.866,1.05,,0.646,0.598,0.663,0.815,0.777,0.881,0.862,0.698
NCI-H1793,,1.29,,0.761,1.05,0.916,0.79,0.968,0.844,0.676,0.615,0.73,0.64,0.884,,0.806,1.06,0.675
NCI-H1915,1.03,1.04,0.823,0.523,0.579,1.08,1,1,1.05,1.03,0.979,0.897,0.984,0.519,0.476,0.446,0.455,1.05
NCI-H1944,0.911,0.997,0.841,0.952,0.985,0.941,0.985,1.01,0.443,0.785,0.745,0.84,0.838,0.58,0.603,0.635,0.382,0.877
NCI-H1975,0.936,0.982,0.925,0.778,0.854,0.97,0.923,1.08,1.22,0.68,0.635,0.624,0.535,0.312,0.296,0.301,0.287,0.687
NCI-H1993,0.913,0.945,0.966,1.12,1.4,0.876,0.874,1.04,0.862,0.689,0.534,0.686,0.778,0.646,0.529,0.523,0.563,0.618
NCI-H2009,0.883,0.974,0.894,0.625,0.628,1.23,1.15,1.2,1.26,1.1,1.05,0.886,0.934,1.12,1.08,1.03,1.15,1.08
NCI-H2023,0.877,1.01,1.01,0.948,1.07,1.03,1.04,1.01,1.18,0.668,0.635,0.614,0.801,0.231,0.264,0.199,0.198,0.614
NCI-H2085,0.846,1.06,1,0.999,1.09,1.06,1.05,1,0.99,0.949,0.93,0.997,0.954,0.82,0.957,0.949,0.852,1.02
NCI-H2087,,1.08,0.853,0.687,0.898,1.17,1.01,0.997,1.08,1.19,1.11,0.823,0.831,0.703,0.657,0.681,0.656,1.12
NCI-H2126,0.875,1.06,0.994,1.02,1.08,1.03,0.963,1.02,0.954,0.706,0.74,0.796,0.777,0.717,0.659,0.676,0.624,0.78
NCI-H2170,0.991,1.01,0.906,0.815,0.895,1.09,0.946,1.05,1,0.91,0.713,0.733,0.95,0.275,0.264,0.309,0.278,0.848
NCI-H2228,0.864,0.987,0.994,0.902,0.944,1.11,1.06,0.84,1.08,0.585,0.813,0.807,0.896,0.338,0.336,0.37,0.342,0.858
NCI-H2347,,1.07,0.877,0.811,0.89,1.05,1.1,1.04,1.01,0.561,0.887,0.965,0.991,0.425,0.43,0.438,0.415,1.01
NCI-H2405,,0.931,0.7,0.898,0.961,1.09,0.941,0.978,1.12,,,0.644,0.701,1.11,1.04,1.04,1.2,0.768
NCI-H3122,0.981,1.05,1.09,0.991,1.06,1.01,0.979,1,1,0.877,0.897,0.912,0.89,0.21,0.194,0.199,0.187,0.774
PC-3 [JPC-3],0.822,1.08,1.11,1.03,1.13,1.11,0.988,1.13,1.06,1.01,1.02,0.907,0.956,1.23,1.08,1.23,1.07,0.996
PC-14,0.795,1.05,1.11,1.01,1.1,1.11,1.03,1.12,0.873,0.901,0.938,0.892,0.833,0.142,0.15,0.124,0.119,0.946
RERF-LC-KJ,1,1.15,0.969,0.986,1.1,0.989,1.03,1.01,1.03,0.73,0.781,0.848,0.953,0.504,0.6,0.484,0.454,0.979
SK-LU-1,,1.03,0.661,0.681,0.762,1.15,1.04,1.1,1.17,0.915,0.869,0.714,0.691,1.01,0.965,0.936,1.04,1
SK-MES-1,0.81,1.08,1.03,0.954,0.934,0.998,0.966,0.944,0.999,0.91,0.933,0.683,0.611,0.936,0.89,0.891,0.979,0.828
SW 1573,0.899,0.916,1.06,0.989,1.05,1.08,0.923,0.899,1.03,0.765,0.74,0.663,0.669,0.759,0.914,0.775,0.741,0.931
UMC-11,1.04,0.988,0.855,0.997,0.956,0.923,0.857,0.82,1.12,1.08,1,0.937,0.935,0.908,0.711,0.755,0.922,1.01
